# Source: patent US10265378B2, “Combination therapy for head and neck cancer” (Cornell University, priority 2014, dated 2019)
# Tested on: pathways (Reactome, KEGG, MouseCyc) in mouse tongue
# Test: Pathway enrichment analysis (ConsensusPathDB) of RNA-Seq data
# [1] = down-regulated vs. 4-NQO group, KEGG
# [2] = down-regulated vs. 4-NQO group, Reactome
# [3] = upregulated vs. 4-NQO group, KEGG
# [4] = upregulated vs. 4-NQO group, MouseCyc
# [5] = upregulated vs. 4-NQO group, Reactome
# Protocol: RNA-Seq analysis of mRNA transcriptome. Representative tongue samples were chosen for the RNA-Seq analysis: untreated (n=5), 4-NQO treatment group (n=3), 4N+B (n=4), 4N+C (n=4), and 4N+B+C (n=5). The extraction of total cellular RNA from mouse tissues was carried out using the RNeasy kit (Qiagen). Subsequent RNA preparation steps were carried out at the Genomics Resources Core Facility of WCMC. The measurement of RNA integrity was determined using the Agilent 2100 BioAnalyzer (Agilent Technologies). Samples with RNA integrity number (RIN) values of 10 were used to construct cDNA libraries. mRNA was purified by using pre-prepared Sera-mag Magnetic Oligo(dT) Beads from Illumina Inc. (SanDiego, Calif.), subjected to thermal fragmentation, and reverse transcribed to first strand cDNA. Following the removal of mRNA strands by RNaseH, first strand cDNAs were used as templates to produce double strand cDNAs, and the overhangs resulting from fragmentation were repaired to blunt ends. An ‘A’ base was added to the 3′ end of cDNAs and subsequently the cDNAs were ligated to Illumina paired end (PE) adaptors that have a single ‘T’ base overhang at their 3′ end. The cDNA-adaptor libraries were purified and enriched by 15 cycles of PCR. The enriched libraries were hybridized to a flow cell and amplified, resulting in ultra-high density flow cells with millions of clusters, each containing about 1,000 copies of the templates. The double stranded cDNA-adaptors were denatured and converted into single strand DNA, and then the template cDNAs were amplified one more time isothermally to produce surface-bound colonies. The clonal DNA clusters were linearized, free 3′ OH ends blocked, denatured, hybridized to sequencing primers, and sequenced. The sequencing was conducted by running 4 samples per lane with 51 pair-end cycles on the HISeq2000/1000. The Sequencing-by-Synthesis process used reversible terminators and a DNA polymerase modified to accept reversible terminator nucleotides. After each synthesis cycle the fluorescence of clusters was imaged with high sensitivity. Then the sequencing images were analyzed in three steps, image analysis, base calling, and sequence analysis. The Tophat software was used to align raw sequencing reads against the UCSC mm9 mouse reference genome, and Cufflinks software was employed to measure transcript abundances in the unit of fragments per kilobase of exon model per million mapped reads (FPKM), as well as to perform statistical analysis on the changes in gene expression. The heat maps for genes of interest were generated by R package software.
smiles,measurement,setting,value
O=C(O)c1ccc(-c2ccc3cc(O)c(C45CC6CC(CC(C6)C4)C5)cc3c2)cc1 [CD1530],cytochrome P450 enzymes (pathway analysis),compared to the 4-NQO group,significantly elevated
same,"candidates contained, pathway Cell cycle-Mus musculus (mouse)",[1],23 (18.1%)
same,"candidates contained, pathway DNA replication-Mus musculus (mouse)",[1],9 (25.0%)
same,"candidates contained, pathway ECM-receptor interaction-Mus musculus (mouse)",[1],13 (15.1%)
same,"candidates contained, pathway Pathways in cancer-Mus musculus (mouse)",[1],27 (8.4%)
same,"candidates contained, pathway Small cell lung cancer-Mus musculus (mouse)",[1],13 (14.9%)
same,"candidates contained, pathway p53 signaling pathway-Mus musculus (mouse)",[1],12 (17.4%)
same,"candidates contained, pathway Activation of ATR in response to replication stress",[2],11 (28.9%)
same,"candidates contained, pathway Activation of the pre-replicative complex",[2],11 (37.9%)
same,"candidates contained, pathway Assembly of the pre-replicative complex",[2],9 (40.9%)
same,"candidates contained, pathway Cell Cycle",[2],54 (17.8%)
same,"candidates contained, pathway Cell Cycle Checkpoints",[2],19 (24.7%)
same,"candidates contained, pathway Cell Cycle, Mitotic",[2],52 (19.4%)
same,"candidates contained, pathway Cyclin A/B1 associated events during G2/M transition",[2],6 (37.5%)
same,"candidates contained, pathway Cyclin B2 mediated events",[2],4 (80.0%)
same,"candidates contained, pathway DNA Replication",[2],41 (26.1%)
same,"candidates contained, pathway DNA Replication Pre-Initiation",[2],12 (33.3%)
same,"candidates contained, pathway DNA strand elongation",[2],8 (25.8%)
same,"candidates contained, pathway G1/S Transition",[2],14 (22.6%)
same,"candidates contained, pathway G2/M Checkpoints",[2],14 (31.1%)
same,"candidates contained, pathway M Phase",[2],27 (27.3%)
same,"candidates contained, pathway M/G1 Transition",[2],12 (33.3%)
same,"candidates contained, pathway Mitotic G1-G1/S phases",[2],16 (21.9%)
same,"candidates contained, pathway Mitotic M-M/G1 phases",[2],39 (28.9%)
same,"candidates contained, pathway Mitotic Prometaphase",[2],26 (27.4%)
same,"candidates contained, pathway Orc1 removal from chromatin",[2],8 (28.6%)
same,"candidates contained, pathway Regulation of DNA replication",[2],10 (33.3%)
same,"candidates contained, pathway Removal of licensing factors from origins",[2],10 (33.3%)
same,"candidates contained, pathway S Phase",[2],12 (17.4%)
same,"candidates contained, pathway Switching of origins to a post-replicative state",[2],8 (28.6%)
same,"candidates contained, pathway Synthesis of DNA",[2],11 (20.4%)
same,"candidates contained, pathway Unwinding of DNA",[2],6 (54.5%)
same,"candidates contained, pathway Arachidonic acid metabolism-Mus musculus (mouse)",[3],25 (26.6%)
same,"candidates contained, pathway Ascorbate and aldarate metabolism-Mus musculus (mouse)",[3],11 (42.3%)
same,"candidates contained, pathway Bile secretion-Mus musculus (mouse)",[3],23 (32.4%)
same,"candidates contained, pathway Biosynthesis of unsaturated fatty acids-Mus musculus (mouse)",[3],10 (40.0%)
same,"candidates contained, pathway Complement and coagulation cascades-Mus musculus (mouse)",[3],38 (50.0%)
same,"candidates contained, pathway Drug metabolism-cytochrome P450-Mus musculus (mouse)",[3],52 (59.8%)
same,"candidates contained, pathway Drug metabolism-other enzymes-Mus musculus (mouse)",[3],22 (39.3%)
same,"candidates contained, pathway Fatty acid metabolism-Mus musculus (mouse)",[3],13 (26.5%)
same,"candidates contained, pathway Glycine, serine and threonine metabolism-Mus musculus (mouse)",[3],12 (30.8%)
same,"candidates contained, pathway Linoleic acid metabolism-Mus musculus (mouse)",[3],24 (53.3%)
same,"candidates contained, pathway Maturity onset diabetes of the young-Mus musculus (mouse)",[3],11 (42.3%)
same,"candidates contained, pathway Metabolic pathways-Mus musculus (mouse)",[3],160 (13.4%)
same,"candidates contained, pathway Metabolism of xenobiotics by cytochrome P450-Mus musculus (mouse)",[3],50 (55.6%)
same,"candidates contained, pathway PPAR signaling pathway-Mus musculus (mouse)",[3],24 (29.6%)
same,"candidates contained, pathway Pentose and glucuronate interconversions-Mus musculus (mouse)",[3],11 (34.4%)
same,"candidates contained, pathway Peroxisome-Mus musculus (mouse)",[3],18 (22.8%)
same,"candidates contained, pathway Primary bile acid biosynthesis-Mus musculus (mouse)",[3],8 (50.0%)
same,"candidates contained, pathway Propanoate metabolism-Mus musculus (mouse)",[3],11 (34.4%)
same,"candidates contained, pathway Retinol metabolism-Mus musculus (mouse)",[3],42 (53.2%)
same,"candidates contained, pathway Serotonergic synapse-Mus musculus (mouse)",[3],24 (17.3%)
same,"candidates contained, pathway Steroid hormone biosynthesis-Mus musculus (mouse)",[3],19 (34.5%)
same,"candidates contained, pathway Tryptophan metabolism-Mus musculus (mouse)",[3],16 (36.4%)
same,"candidates contained, pathway Tyrosine metabolism-Mus musculus (mouse)",[3],11 (28.2%)
same,"candidates contained, pathway beta-Alanine metabolism-Mus musculus (mouse)",[3],10 (33.3%)
same,"candidates contained, pathway bupropion degradation",[4],29 (74.4%)
same,"candidates contained, pathway nicotine degradation II",[4],41 (65.1%)
same,"candidates contained, pathway nicotine degradation III",[4],35 (63.6%)
same,"candidates contained, pathway Activation of C3 and C5",[5],5 (83.3%)
same,"candidates contained, pathway Bile acid and bile salt metabolism",[5],19 (50.0%)
same,"candidates contained, pathway Biological oxidations",[5],64 (40.5%)
same,"candidates contained, pathway Chylomicron-mediated lipid transport",[5],11 (61.1%)
same,"candidates contained, pathway Common Pathway",[5],9 (69.2%)
same,"candidates contained, pathway Complement cascade",[5],11 (39.3%)
same,"candidates contained, pathway Cytochrome P450-arranged by substrate type",[5],42 (51.2%)
same,"candidates contained, pathway Formation of Fibrin Clot (Clotting Cascade)",[5],18 (52.9%)
same,"candidates contained, pathway Gamma-carboxylation of protein precursors",[5],6 (66.7%)
same,"candidates contained, pathway Gamma-carboxylation, transport, and amino-terminal cleavage of proteins",[5],6 (60.0%)
same,"candidates contained, pathway HDL-mediated lipid transport",[5],9 (52.9%)
same,"candidates contained, pathway Intrinsic Pathway",[5],10 (50.0%)
same,"candidates contained, pathway Lipid digestion, mobilization, and transport",[5],18 (36.7%)
same,"candidates contained, pathway Lipoprotein metabolism",[5],16 (51.6%)
same,"candidates contained, pathway Metabolism",[5],181 (18.6%)
same,"candidates contained, pathway Metabolism of amino acids and derivatives",[5],34 (27.4%)
same,"candidates contained, pathway Metabolism of lipids and lipoproteins",[5],57 (21.8%)
same,"candidates contained, pathway Miscellaneous substrates",[5],10 (55.6%)
same,"candidates contained, pathway Phase 1-Functionalization of compounds",[5],51 (51.5%)
same,"candidates contained, pathway Phase II conjugation",[5],14 (23.3%)
same,"candidates contained, pathway Phenylalanine and tyrosine catabolism",[5],7 (87.5%)
same,"candidates contained, pathway Platelet degranulation",[5],19 (29.7%)
same,"candidates contained, pathway Recycling of bile acids and salts",[5],7 (50.0%)
same,"candidates contained, pathway Removal of aminoterminal propeptides from gamma-carboxylated proteins",[5],6 (66.7%)
same,"candidates contained, pathway Response to elevated platelet cytosolic Ca2+",[5],19 (27.1%)
same,"candidates contained, pathway Synthesis of bile acids and bile salts",[5],15 (55.6%)
same,"candidates contained, pathway Synthesis of bile acids and bile salts via 7alpha-hydroxycholesterol",[5],15 (65.2%)
same,"candidates contained, pathway Synthesis of bile acids and bile salts via 24-hydroxycholesterol",[5],11 (61.1%)
same,"candidates contained, pathway Synthesis of bile acids and bile salts via 27-hydroxycholesterol",[5],8 (57.1%)
same,"candidates contained, pathway Terminal pathway of complement",[5],5 (83.3%)
same,"candidates contained, pathway Transport of gamma-carboxylated protein precursors from the ER to the Golgi apparatus",[5],6 (75.0%)
same,"candidates contained, pathway Xenobiotics",[5],31 (81.6%)
